Results from US20130079274A1, “PHARMACEUTICAL COMPOSITIONS FOR TREATING DYSREGULATED INFLAMMATORY DISEASES” (priority 2009, published 2013).
Ends that are not written are not given here.

Experiments:
peritoneal macrophages = assay: Cytokine and chemokine secretion of isolated peritoneal macrophages after CLP; details: cells isolated 24 h after CLP, cultured 24 h; vs control, p>0.05
Experimental: The control group received saline as vehicle, the study group was substituted with 4 μg/kg MALP-2 i.p simultaneously to cecal ligation and puncture (CLP). All animals underwent CLP for induction of polymicrobial sepsis.
Peritoneal macrophages were isolated by lavage of the peritoneal cavity with 3×5 ml PBS containing 10 IU/ml heparin (Ratiopharm) 24 hours after CLP. Thereafter, cells were washed once with PBS and centrifuged at 400×g for 15 minutes at 4° C. The pellet was resuspended in 5 ml RPMI (Biochrom) containing 10% FCS and antibiotics (50 U/ml penicillin, 50 μg/ml streptomycin, Invitrogen; 2.5 μg/ml Amphotericin B, Biochrom). 106 cells were plated in a 24-well plate and incubated for 24 hours at 37° C., 95% humidity, and 5% CO2. At the end of the incubation period, the supernatants were removed and stored at −80° C. until analysis was performed.
Cytokine and chemokines in plasma and cell culture supernatant were measured with Multiplex and Simplex Kits according to manufacturer's instructions (BenderMed Systems, Vienna, Austria).

sepsis-related mortality = details: pretreatment four days before sepsis induction; cited from earlier work
[1] = system: CLP-induced polymicrobial sepsis; assay: Activity score after CLP; type: in vivo, C57BL/6-mice; details: 4 μg/kg i.p. simultaneously to CLP, vs control
Experimental: The surgical procedure was as follows: the cecum was exposed after a midline laparotomy and ligated distal to the ileocecal valve. Subsequently, the cecum was punctured twice using a 21 G needle and was returned to the abdominal cavity. The model also includes the protrusion of contents of the cecum to assure the presence of bacteria in the peritoneum. The closure of the abdomen was performed with double layer sutures. Data were obtained 4, 24 and 96 hours after surgery. Clinical data concerning mortality and activity were obtained once daily until 96 hours after instrumentation.
As a measure for clinical status, activity of mice was analyzed by using a previously established scoring system, see table 1. Within this score, the spontaneous activity, spontaneous food intake and response to exogenous stimuli was analyzed. The scoring of each animal (from 1=moribund to 6=very active) was independently performed in a blinded fashion by two persons and the mean of both values was recorded.

[2] = system: CLP-induced polymicrobial sepsis; assay: Mortality after cecal ligation and puncture (CLP) polymicrobial sepsis; type: in vivo, C57BL/6-mice; details: over 96 h
From the text: Maintenance and use of the animals were in accord with the German Animal Welfare Legislation. All experiments were approved by the local institutional animal care and research advisory committee and permitted by the local government of Lower Saxony (Germany). 47 male C57BL/6-mice (Charles River, Germany) with a weight of 20±3 g were used for the study. All animals were handled at room temperature for 14 days before treatment. Animals were maintained under standardized conditions with a controlled environment at 21±2° C., relative humidity of 50% and artificial light (14 hours light, 10 hours dark). They received a commercial pellet diet (altromin 1317) and water ad libitum. Analgetic treatment was performed in all animals (200 mg/kg body weight (BW) metamizol-sodium, Novalgin®, Hoechst, Unterschleiβheim, Germany) throughout the study.
All surgical procedures were performed after deeply anaesthetizing the animals with isoflurane. The mice were warmed to 36° C. using infrared warming lamps after having finished the surgical procedures. All mice received once daily subcutaneous injections of 1 ml sterile ringer's lactate for fluid replacement.
The surgical procedure was as follows: the cecum was exposed after a midline laparotomy and ligated distal to the ileocecal valve. Subsequently, the cecum was punctured twice using a 21 G needle and was returned to the abdominal cavity. […]

[3] = system: sepsis, septic shock and MODS; details: patients with sepsis; cited from earlier work

Substance	IL-6, IL-10, TNF-α, MCP-1, MCP-3 or GM-CSF of peritoneal macrophages (peritoneal macrophages)	protection against sepsis-related mortality (sepsis-related mortality)	activity rates (activity score, table 1) ([1]; 24 to 72 hours following CLP, p<0.05)	activity rates (activity score, table 1) ([1]; after 96 hours)	total mortality ([2]; 4 μg/kg BW i.p. simultaneously to CLP, control 62.5%, p=0.031)	mortality ([2]; MALP-2 i.p. 6 hours following CLP, p=0.047 vs vehicle)	reduction of death of affected patients [3]
Macrophage-activating lipopeptide-2 (GNNDESNISFKEK; not fully specified) [MALP-2]	No differences	partial protection	increased	comparable between both groups	12.5%	22.2%	
activated protein C							6.1%
